Measured values taken from the OligoGym collection.
HELM strings list units from the 5' end as sugar, base in round brackets, then linkage (d deoxyribose, r ribose, m 2'-O-methyl, p phosphodiester). Strings are as the collection lists them; they lack the last nucleoside at the 3' end of the tested compound. [moe] = 2'-O-(2-methoxyethyl) (MOE); [sp] = phosphorothioate linkage; [m5C] = 5-methylcytosine

Biological target: GFAP
Assay: mouse, dose not given
Settings: ASO

Row | Substance | 3 h FOB score [score 0-7]
1 | RNA1{[moe](T)[sp].[moe](A)p.[moe](G)p.[moe](T)p.d([m5C])[sp].d(A)[sp].d(G)[sp].d([m5C])[sp].d([m5C])[sp].d(T)[sp].d(G)[sp].d(G)[sp].d(T)[sp].d(T)[sp].[moe](A)p.[moe](G)p.[moe]([m5C])p.[moe]([m5C])[sp].[moe](T)}$$$$ (last 3' nucleoside missing) | 3
2 | RNA1{[moe](A)[sp].[moe](G)p.[moe]([m5C])p.[moe]([m5C])p.[moe](A)[sp].d(G)[sp].d(T)[sp].d(G)[sp].d(T)[sp].d([m5C])[sp].d(T)[sp].d(T)[sp].d([m5C])[sp].d(A)[sp].d([m5C])[sp].[moe](T)p.[moe](T)p.[moe](T)[sp].[moe](G)}$$$$ (last 3' nucleoside missing) | 2
3 | RNA1{[moe](G)[sp].[moe](G)p.[moe](G)p.[moe](T)p.[moe](G)[sp].d(A)[sp].d([m5C])[sp].d([m5C])[sp].d([m5C])[sp].d(A)[sp].d(A)[sp].d(G)[sp].d(T)[sp].d([m5C])[sp].d([m5C])[sp].[moe](T)p.[moe](T)p.[moe](G)[sp].[moe](G)}$$$$ (last 3' nucleoside missing) | 5
4 | RNA1{[moe](A)[sp].[moe](T)p.[moe](G)p.[moe](G)p.[moe](G)[sp].d(T)[sp].d(G)[sp].d(A)[sp].d(G)[sp].d(G)[sp].d(T)[sp].d(G)[sp].d(A)[sp].d(G)[sp].d(G)[sp].[moe](A)p.[moe](G)p.[moe](T)[sp].[moe]([m5C])}$$$$ (last 3' nucleoside missing) | 5
5 | RNA1{[moe](T)[sp].[moe](G)p.[moe](T)p.[moe]([m5C])p.[moe](T)[sp].d(T)[sp].d(T)[sp].d(A)[sp].d(T)[sp].d(T)[sp].d(T)[sp].d(T)[sp].d(T)[sp].[moe]([m5C])p.[moe]([m5C])p.[moe](T)[sp].[moe]([m5C])}$$$$ (last 3' nucleoside missing) | 1
6 | RNA1{[moe]([m5C])[sp].[moe](G)p.[moe](T)p.[moe]([m5C])p.[moe](A)p.d([m5C])[sp].d(A)[sp].d(T)[sp].d(T)[sp].d([m5C])[sp].d(A)[sp].d([m5C])[sp].d(T)[sp].d(A)[sp].d(A)[sp].[moe](T)p.[moe](A)p.[moe](T)[sp].[moe](T)}$$$$ (last 3' nucleoside missing) | 0
7 | RNA1{[moe](A)[sp].[moe](G)p.[moe](T)p.[moe](G)p.d(T)[sp].d(G)[sp].d(T)[sp].d(A)[sp].d(T)[sp].d(T)[sp].d(A)[sp].d(G)[sp].d(G)[sp].d(A)[sp].[moe](T)p.[moe]([m5C])p.[moe]([m5C])p.[moe]([m5C])[sp].[moe](A)}$$$$ (last 3' nucleoside missing) | 5
8 | RNA1{[moe](A)[sp].[moe](T)p.[moe](T)p.[moe](T)p.[moe](G)p.[moe](G)p.d([m5C])[sp].d(A)[sp].d(G)[sp].d(T)[sp].d(A)[sp].d(T)[sp].d(T)[sp].d(A)[sp].d([m5C])[sp].d([m5C])[sp].[moe](T)p.[moe]([m5C])[sp].[moe](T)}$$$$ (last 3' nucleoside missing) | 0
9 | RNA1{[moe](G)[sp].[moe](T)p.[moe](G)p.[moe]([m5C])p.d(T)[sp].d(T)[sp].d(T)[sp].d(T)[sp].d(G)[sp].d([m5C])[sp].d([m5C])[sp].d([m5C])[sp].d([m5C])[sp].d([m5C])[sp].[moe](T)p.[moe](G)p.[moe](T)p.[moe](A)[sp].[moe](G)}$$$$ (last 3' nucleoside missing) | 3
10 | RNA1{[moe](G)[sp].[moe]([m5C])p.[moe](A)p.[moe](A)p.[moe]([m5C])[sp].d(A)[sp].d(G)[sp].d(T)[sp].d(T)[sp].d(T)[sp].d([m5C])[sp].d([m5C])[sp].d(A)[sp].d(T)[sp].d(A)[sp].[moe](A)p.[moe]([m5C])p.[moe](A)[sp].[moe](A)}$$$$ (last 3' nucleoside missing) | 0
11 | RNA1{[moe](G)[sp].[moe]([m5C])p.[moe](A)p.[moe](T)p.[moe](T)[sp].d(T)[sp].d(G)[sp].d(T)[sp].d([m5C])[sp].d(T)[sp].d(T)[sp].d(T)[sp].d(A)[sp].[moe](T)p.[moe](T)p.[moe](T)[sp].[moe](T)}$$$$ (last 3' nucleoside missing) | 1
12 | RNA1{[moe](G)[sp].[moe](T)p.[moe]([m5C])p.[moe](A)p.[moe](G)[sp].d([m5C])[sp].d([m5C])[sp].d(T)[sp].d(G)[sp].d(G)[sp].d(T)[sp].d(T)[sp].d(A)[sp].[moe](G)p.[moe]([m5C])p.[moe]([m5C])[sp].[moe](T)}$$$$ (last 3' nucleoside missing) | 1
13 | RNA1{[moe](G)[sp].[moe](A)p.[moe]([m5C])p.[moe]([m5C])p.[moe](T)[sp].d(G)[sp].d(T)[sp].d(G)[sp].d(A)[sp].d([m5C])[sp].d(T)[sp].d(A)[sp].d(T)[sp].d([m5C])[sp].d(T)[sp].[moe](A)p.[moe](G)p.[moe](G)[sp].[moe](A)}$$$$ (last 3' nucleoside missing) | 3
14 | RNA1{[moe]([m5C])[sp].[moe]([m5C])p.[moe](A)p.[moe](G)p.[moe](T)[sp].d(G)[sp].d([m5C])[sp].d([m5C])[sp].d([m5C])[sp].d(T)[sp].d(T)[sp].d([m5C])[sp].d([m5C])[sp].d([m5C])[sp].d(A)[sp].[moe]([m5C])p.[moe](G)p.[moe](A)[sp].[moe](G)}$$$$ (last 3' nucleoside missing) | 2
15 | RNA1{[moe](G)[sp].[moe](G)p.[moe]([m5C])p.[moe](A)p.[moe]([m5C])p.[moe](A)p.d(G)[sp].d(T)[sp].d(T)[sp].d([m5C])[sp].d([m5C])[sp].d([m5C])[sp].d(A)[sp].d(G)[sp].d(A)[sp].d(T)[sp].[moe](A)p.[moe]([m5C])[sp].[moe](T)}$$$$ (last 3' nucleoside missing) | 1
16 | RNA1{[moe](G)[sp].[moe](T)p.[moe](G)p.[moe](T)p.[moe](A)[sp].d(T)[sp].d(T)[sp].d(A)[sp].d(G)[sp].d(G)[sp].d(A)[sp].d(T)[sp].d([m5C])[sp].[moe]([m5C])p.[moe]([m5C])p.[moe](A)[sp].[moe](T)}$$$$ (last 3' nucleoside missing) | 4
17 | RNA1{[moe](G)[sp].[moe]([m5C])p.[moe](T)p.[moe](T)p.d(T)[sp].d(T)[sp].d(G)[sp].d(A)[sp].d(G)[sp].d(A)[sp].d(T)[sp].d(A)[sp].d(T)[sp].d([m5C])[sp].[moe](T)p.[moe](T)p.[moe](G)p.[moe](T)[sp].[moe](G)}$$$$ (last 3' nucleoside missing) | 1
18 | RNA1{[moe](T)[sp].[moe](G)p.[moe](T)p.[moe](G)p.[moe](T)[sp].d(A)[sp].d(T)[sp].d(T)[sp].d(A)[sp].d(G)[sp].d(G)[sp].d(A)[sp].d(T)[sp].[moe]([m5C])p.[moe]([m5C])p.[moe]([m5C])[sp].[moe](A)}$$$$ (last 3' nucleoside missing) | 4
19 | RNA1{[moe](G)[sp].[moe](T)p.[moe]([m5C])p.[moe](T)p.d(T)[sp].d(T)[sp].d(A)[sp].d(T)[sp].d(T)[sp].d(T)[sp].d(T)[sp].d(T)[sp].d([m5C])[sp].d([m5C])[sp].[moe](T)p.[moe]([m5C])p.[moe](A)p.[moe](G)[sp].[moe]([m5C])}$$$$ (last 3' nucleoside missing) | 3
20 | RNA1{[moe]([m5C])[sp].[moe](A)p.[moe](T)p.[moe]([m5C])p.[moe](T)[sp].d(G)[sp].d([m5C])[sp].d(T)[sp].d(T)[sp].d([m5C])[sp].d([m5C])[sp].d(T)[sp].d(G)[sp].d(G)[sp].d(A)[sp].[moe](G)p.[moe](T)p.[moe](G)[sp].[moe](G)}$$$$ (last 3' nucleoside missing) | 1
21 | RNA1{[moe](A)[sp].[moe](A)p.[moe](G)p.[moe](G)p.[moe]([m5C])p.[moe](A)p.d([m5C])[sp].d(A)[sp].d(G)[sp].d(T)[sp].d(T)[sp].d([m5C])[sp].d([m5C])[sp].d([m5C])[sp].d(A)[sp].d(G)[sp].[moe](A)p.[moe](T)[sp].[moe](A)}$$$$ (last 3' nucleoside missing) | 2
22 | RNA1{[moe](G)[sp].[moe](G)p.[moe]([m5C])p.[moe](A)p.[moe](G)[sp].d(T)[sp].d(A)[sp].d(T)[sp].d(T)[sp].d(A)[sp].d([m5C])[sp].d([m5C])[sp].d(T)[sp].d([m5C])[sp].d(T)[sp].[moe](A)p.[moe]([m5C])p.[moe](T)[sp].[moe](A)}$$$$ (last 3' nucleoside missing) | 3
23 | RNA1{[moe](T)[sp].[moe]([m5C])p.[moe](A)p.[moe](G)p.d([m5C])[sp].d([m5C])[sp].d(T)[sp].d(G)[sp].d(G)[sp].d(T)[sp].d(T)[sp].d(A)[sp].d(G)[sp].d([m5C])[sp].[moe]([m5C])p.[moe](T)p.[moe](T)p.[moe](T)[sp].[moe]([m5C])}$$$$ (last 3' nucleoside missing) | 4
24 | RNA1{[moe](G)[sp].[moe](T)p.[moe](G)p.[moe](T)p.[moe](G)p.[moe](T)p.d(A)[sp].d(T)[sp].d(T)[sp].d(A)[sp].d(G)[sp].d(G)[sp].d(A)[sp].d(T)[sp].d([m5C])[sp].d([m5C])[sp].[moe]([m5C])p.[moe](A)[sp].[moe](T)}$$$$ (last 3' nucleoside missing) | 4
25 | RNA1{[moe]([m5C])[sp].[moe](T)p.[moe](T)p.[moe](G)p.[moe](T)p.d(G)[sp].d(A)[sp].d(T)[sp].d(T)[sp].d(T)[sp].d(T)[sp].d([m5C])[sp].d([m5C])[sp].d([m5C])[sp].d([m5C])[sp].[moe](G)p.[moe](T)p.[moe]([m5C])[sp].[moe](T)}$$$$ (last 3' nucleoside missing) | 3
26 | RNA1{[moe](T)[sp].[moe](G)p.[moe](G)p.[moe]([m5C])p.[moe](A)p.[moe](G)p.d(T)[sp].d(A)[sp].d(T)[sp].d(T)[sp].d(A)[sp].d([m5C])[sp].d([m5C])[sp].d(T)[sp].d([m5C])[sp].d(T)[sp].[moe](A)p.[moe]([m5C])[sp].[moe](T)}$$$$ (last 3' nucleoside missing) | 0
